According to patent US20240210394A1, “MICROORGANISM CAPTURE FROM ANTIMICROBIAL-CONTAINING SOLUTION” (MOMENTUM BIOSCIENCE LIMITED, priority 2019, published 2024):
“And” between values parts separate entries of the source, which are not always exact repeats. Equal values may be shown once.

Tested on: E. coli
Test: ETGA (microbial polymerase) qPCR after microbial capture (Magnitor test)
Assay type: cell-based
Design: ETGA results CV: unit not given here
Experimental: The Magnitor test consists of two microbial detection read-outs: • ETGA: detection of microbial polymerase from intact microbial cells • Confirm: detection of microbial DNA according to gram status (Gram Negative, Gram Positive, or Candida) […]
• E. coli o/n liquid culture 1E-3 dilution spiked into blood broth (6.25 μL o/n per mL: 244 μL o/n+39 mL blood broth) and […] out-growth performed in shaking incubator @ 37° C., 500 rpm • Following 2-hour outgrowth, samples produced by adding 1 mL specimen to 2 mL tube containing buffer (and 15 μL BioEstapor beads (Merck, Cat #BE-M 08/0.3) for Mag Beads sample-set): triplicate E. coli (EC) and No Spike Control (NSC) samples per test condition • 100 μL TVCs performed for NSC and E. coli (including dilutions of specimen to ensure countable plates)
• Samples centrifuged for 3 minutes at 9000×g (tube hinges facing outwards for pellet traceability) • Supernatants removed • 50 μL LM added to samples (approx. 10× pipette mixes to resuspend pellets) • Samples placed in shaking incubator at 900 rpm for 5 minutes and then 800 rpm for 55 minutes (26° C.) • Centrifuge samples at 17000×g for 1 minute before qPCR set-up
• Samples placed in shaking incubator at 900 rpm for 30 minutes (37° C.) • Samples placed on DynaMag-2 magnetic rack for 5 minutes and then supernatants removed • 50 μL LM added to samples (approx. 10× pipette mixes to resuspend pellets) • Samples placed in shaking incubator at 900 rpm for 5 minutes and then 800 rpm for 55 minutes (26° C.) • Magnetise samples for 3 minutes before qPCR set-up Manual qPCR set-up (10 μL reactions) for ETGA mastermix only
• E. coli o/n liquid culture set-up as standard in BacTec PLUS aerobic broth, then following day (approx. 16 hours later) 1.88 μL o/n added to 3 mL broth (equivalent to EC 1E-1 dilution added to broth at 6.25 μL/mL) and 2-hour outgrowth performed at 37° C., 500 rpm. • Following 2-hour outgrowth, E. coli preculture serially diluted (DF10) down to EC 1E-6 in either prewarmed blood-broth (BB), broth only (BO) or 1× buffer (B-BUF or Tris+NaCl). • 100 μL TVCs performed for all E. coli dilutions and NSCs
• 1 mL samples added to 2 mL tubes containing 112 μL of binding buffer (either B-BUF or Tris+NaCl: 10× for BB and BO sample-sets; and 1× for Buffer sample-sets)+15 μL beads (prewashed in respective buffer) • 30 mins shaking (1000 rpm) @ 37° C. • 5 mins magnetisation on DynaMag-2 • All s/n removed • 1 mL WB added and tubes mixed for 2 mins @ RT (1000 rpm) • 5 mins magnetisation on Dynmag-2 • All s/n removed • 50 μL LM added to tubes off magnet (5 μL Polymerase Control (PC) added to each PC sample tube) • ETGA reaction performed: 5 mins at 1000 rpm, then 55 mins at 800 rpm @26° C. • Manual qPCR set-up for ETGA and Confirm (10 μL reactions)
• E. coli o/n liquid cultures set-up as standard in BacTec PLUS aerobic broth (containing SPS) and Nutrient Broth (NB containing no SPS), then the following day (approx. 16 hours later) 1.88 μL o/n added to 3 mL broth (equivalent to EC 1E-1 dilution added to broth at 6.25 μL/mL) for each broth type (NB in morning and PLUS broth in afternoon), and 2-hour outgrowth incubations performed at 37° C., 500 rpm. • For each experiment (NB and PLUS), 1E-1 E. coli preculture diluted down to E. coli 1E-6 (DF10) in each 1× buffer (BUF-1 to BUF-6) • 100 μL TVCs performed using a separate EC dilution set performed in relevant broth (NB or PLUS broth) to prevent plate viability inconsistencies resulting from different 1× buffers […]

For Sodium polyanethol sulfonate [SPS], the “ETGA results Ave. ΔCt” value (WB SPS 0.01 %) was 4.70, the “ETGA results CV” value (WB SPS 0.01 %) was 56.59 and the ETGA results (WB SPS 0.01 %, EC 1-3 replicates, Time ZERO) was 27.90 Ct and 29.12 Ct and 28.14 Ct. The ETGA results (WB SPS 0.01 %, NSC 1-3 replicates, NoCt changed to 50 Ct) was 33.39 Ct and 33.06 Ct and 32.81 Ct, the “ETGA results Ave. ΔCt” value (WB SPS 0.02 %) was 7.28 and the “ETGA results CV” value (WB SPS 0.02 %) was 6.16. The ETGA results (WB SPS 0.02 %, EC 1-3 replicates, Time ZERO) was 26.41 Ct and 25.88 Ct and 27.24 Ct, the ETGA results (WB SPS 0.02 %, NSC 1-3 replicates, NoCt changed to 50 Ct) was 33.20 Ct and 33.77 Ct and 34.41 Ct and the “ETGA results Ave. ΔCt” value (WB SPS 0.04 %) was 9.65. The “ETGA results CV” value (WB SPS 0.04 %) was 4.40, the ETGA results (WB SPS 0.04 %, EC 1-3 replicates, Time ZERO) was 29.31 Ct and 29.43 Ct and 29.70 Ct and the ETGA results (WB SPS 0.04 %, NSC 1-3 replicates, NoCt changed to 50 Ct) was 38.93 Ct and 39.93 Ct and 38.54 Ct. The “ETGA results Ave. ΔCt” value (WB SPS 0.06 %) was 15.74, the “ETGA results CV” value (WB SPS 0.06 %) was 0.02 and the ETGA results (WB SPS 0.06 %, EC 1-3 replicates, Time ZERO) was 28.70 Ct and 28.50 Ct and 27.62 Ct. The ETGA results (WB SPS 0.06 %, NSC 1-3 replicates, NoCt changed to 50 Ct) was 44.62 Ct and 44.11 Ct and 43.30 Ct, the “ETGA results Ave. ΔCt” value (WB SPS 0.08 %) was 18.12 and the “ETGA results CV” value (WB SPS 0.08 %) was 0.01. The ETGA results (WB SPS 0.08 %, EC 1-3 replicates, Time ZERO) was 32.31 Ct and 31.94 Ct and 31.40 Ct, the ETGA results (WB SPS 0.08 %, NSC 1-3 replicates, NoCt changed to 50 Ct) was 50.00 Ct and the “ETGA results Ave. EC” value (WB SPS 0.1 %) was 34.07 Ct. For the same substance, the “ETGA results Ave. NSC” value (WB SPS 0.1 %) was 50.00 Ct, the “ETGA results Ave. ΔCt” value (WB SPS 0.1 %) was 15.93 and the “ETGA results CV” value (WB SPS 0.1 %) was 0.02. For the same substance, the ETGA results (WB SPS 0.1 %, EC 1-3 replicates, Time ZERO) was 33.76 Ct and 34.37 Ct and 34.08 Ct and the ETGA results (WB SPS 0.1 %, NSC 1-3 replicates, NoCt changed to 50 Ct) was 50.00 Ct.
